Measured values: patent US9029557B2, “Labeled A4B2 ligands and methods therefor” (priority 2004, dated 2015)
Like-named read-outs stand apart in the source and are kept apart here.

Experiments:
α4β2 receptors [1] = biological target: T1, α4β2 receptors (Homo sapiens, UniProt P17787+P43681); set-up: host or cells: human brain in vivo (SPECT), work done elsewhere; conditions: human studies; cited from earlier work
rat brain α4β2 receptors = biological target: T2, rat brain α4β2 receptors (Rattus norvegicus, UniProt P09483+P12390); assay: Brain homogenate binding assay using 3H-cytisine; conditions: read-out: Binding affinity Ki for rat brain α4β2 receptors
T2 construct: The brains from male Sprague-Dawley rats (n=4 per group) were extracted and frozen; from tissue; host or cells: rat brain (Sprague-Dawley)

α4β2 receptor [2] = biological target: T3, α4β2 receptor (Rattus norvegicus, UniProt P09483+P12390); assay: Displacement of 18F-nifene bound in rat brain slices; assay type: binding; set-up: The brains from male Sprague-Dawley rats (n=4 per group) were extracted and frozen; from tissue; host or cells: rat brain (Sprague-Dawley); conditions: 10 nM
α4β2 receptor [3] = biological target: T3, α4β2 receptor; assay: Autoradiography of 123I-niodene in rat brain sections; assay type: binding; set-up: The brains from male Sprague-Dawley rats (n=4 per group) were extracted and frozen; from tissue; host or cells: rat brain (Sprague-Dawley); conditions: low specific activity 123I-niodene, 5 nM
α4β2 receptors [4] = biological target: T1, α4β2 receptors; assay: Affinity of Niofene; assay type: binding
α4β2 nAChRs [5] = biological target: α4β2 nAChRs (Homo sapiens, UniProt P17787+P43681); conditions: comparison agents; cited from earlier work
α4β2 nAChRs [6] = biological target: T4, α4β2 nAChRs (Rattus norvegicus, UniProt P09483+P12390); conditions: rat PET, cerebellum as reference region
α4β2 receptor [7] = test system: α4β2 receptor
Description: The male rhesus monkey (12 kg) was anesthetized using ketamine (10 mg/kg) and xylazine (0.5 mg/kg) and was subsequently maintained on 0.5%-1.5% isoflurane. Two intravenous catheters were placed, one on each arm, for purposes of administration of the radiopharmaceutical and for obtaining blood samples during the study. The head of the animal was placed in the gantry of an ECAT EXACT HR PET scanner and positioned in place with adhesive tape as described previously. A transmission scan using a 68Ge/68Ga rod source was acquired before administration of the radiopharmaceutical to correct for tissue attenuation of the coincident radiation.
Data in the final form are expressed in units of the percentage injected dose per milliliter (% ID/mL) or kilobecquerels per milliliter (kBq/mL). […] Time-activity curves were obtained for all these regions. […] This MRI template of the rhesus (Macaca mulatta) brain is an average of 6 monkeys with T1-weighted MR scans. Postimage processing removed the skull and scalp from the template (courtesy of University of Wisconsin-Madison).

α4β2 receptor sites = α4β2 receptor sites (Rattus norvegicus, UniProt P09483+P12390)
Description: Coronal and horizontal brain slices ([…]) were obtained from male Sprague-Dawley rats. Sets of brain slices were preincubated in buffer (50 mmol/L Tris HCl containing 120 mmol/L NaCl, 5 mmol/L KCl, 2.5 mmol/L CaCl2, 1 mmol/L MgCl2, pH 7.4) for 10 min (26). […] Nonspecific binding was measured in the presence of […] (weighed as nicotine ditartarate). In some experiments, a lower concentration of nicotine (10 μmol/L) was also used. After incubation, slides were washed twice (1 min each) with ice-cold Tris HCl buffer, pH 7.4, followed by a quick rinse in cold deionized water. The slides were then air dried and apposed to phosphor screens overnight and read by the Cyclone Phosphor Imaging System (Packard Instruments Co).

α4β2 receptor [8] = biological target: T3, α4β2 receptor; conditions: for % ID/g Blood / % ID/g Cerebellum / % ID/g Cortex / % ID/g Thalamus: i.v. 3.7 MBq
Description: The animals were allowed to recover from anesthesia and had free access to food and water. […] Thalamus, Ctx, cerebellum, and blood were isolated from each rat and placed in preweighed tubes and were counted for 18F radioactivity.

α7 nAChRs = biological target: T5, α7 nAChRs (Rattus norvegicus, UniProt Q05941); assay: 125I-α-bungarotoxin binding competition in rat brain slices; conditions: up to a concentration of 30 nmol/L
T5 construct: The brains from male Sprague-Dawley rats (n=4 per group) were extracted and frozen; from tissue; host or cells: rat brain slices (VLG, SuG)
Description: (§1) In vitro binding affinity of nifrolidine was measured in rat brain slices labeled with 125I-iodoepibatidine (125I-IEB) or 125I-α-bungarotoxin. The brains from male Sprague-Dawley rats (n=4 per group) were extracted and frozen in isopentane at […].
(§2) Coronal sections (20-μm thick) were prepared from 4 brain levels on a cryostat at […]. […] Competition studies were performed by incubating alternate sections with 125IIEB in the absence or presence of cytisine (200 nmol/L) and nicotine (300 μmol/L) and various concentrations of nifrolidine (0-30 nmol/L). Slides were then rinsed twice for 10 min in ice-cold buffer, dipped briefly in ice-cold water, blown dry, and laid out for autoradiography along with 125I plastic standards of known radioactivity (FIG. 3). […]
(§3) Autoradiograms were quantified with a computer-based image analysis system (MCID; Imaging Research) using calibrated standards of reference. A calibration curve of to optical density against radioligand concentration (fmol/mg tissue) was constructed using values of known radioactivity. Optical densities in discrete regions of the autoradiographic images were measured, and corresponding values of radioactivity were determined by interpolation from the calibration curve. Specific binding values in each region were determined by subtracting binding in the presence of excess inhibitor from total binding values. […]

α4β2 nAChRs [9] = biological target: T4, α4β2 nAChRs; assay: In vitro binding affinity, inhibition of 125I-IEB in rat brain slices (autoradiography), α4β2 sites; set-up: from tissue; host or cells: brain of the living rat (PET); conditions: p-toluenesulfonate salt
Description: as §1, §2, §3

α3β4 sites = biological target: T6, α3β4 sites (Rattus norvegicus, UniProt P04757+P12392); assay: In vitro binding affinity, inhibition of 125I-IEB in rat brain slices (autoradiography), α3β4 sites; conditions: 125I-IEB in presence of 200 nmol/L cytisine
T6 construct: The brains from male Sprague-Dawley rats (n=4 per group) were extracted and frozen; from tissue; host or cells: rat brain slices (pineal, interpeduncular nucleus, medial habenula)
Description: as §1, §2, §3

α3β2 sites = biological target: T7, α3β2 sites (Rattus norvegicus, UniProt P04757+P12390); assay: In vitro binding affinity, inhibition of 125I-IEB in rat brain slices (autoradiography), α3β2 sites; conditions: 125I-IEB in presence of 200 nmol/L cytisine
T7 construct: The brains from male Sprague-Dawley rats (n=4 per group) were extracted and frozen; from tissue; host or cells: rat brain slices (DLG, SuG, optic tract)
Description: as §1, §2, §3

alpha4-beta2 receptors = alpha4-beta2 receptors (Rattus norvegicus, UniProt P09483+P12390); conditions: nicotine 60 μM, horizontal rat brain slices
[10] = rhesus monkey PET, 155 MBq i.v.

T3 sequence (P09483 31-630): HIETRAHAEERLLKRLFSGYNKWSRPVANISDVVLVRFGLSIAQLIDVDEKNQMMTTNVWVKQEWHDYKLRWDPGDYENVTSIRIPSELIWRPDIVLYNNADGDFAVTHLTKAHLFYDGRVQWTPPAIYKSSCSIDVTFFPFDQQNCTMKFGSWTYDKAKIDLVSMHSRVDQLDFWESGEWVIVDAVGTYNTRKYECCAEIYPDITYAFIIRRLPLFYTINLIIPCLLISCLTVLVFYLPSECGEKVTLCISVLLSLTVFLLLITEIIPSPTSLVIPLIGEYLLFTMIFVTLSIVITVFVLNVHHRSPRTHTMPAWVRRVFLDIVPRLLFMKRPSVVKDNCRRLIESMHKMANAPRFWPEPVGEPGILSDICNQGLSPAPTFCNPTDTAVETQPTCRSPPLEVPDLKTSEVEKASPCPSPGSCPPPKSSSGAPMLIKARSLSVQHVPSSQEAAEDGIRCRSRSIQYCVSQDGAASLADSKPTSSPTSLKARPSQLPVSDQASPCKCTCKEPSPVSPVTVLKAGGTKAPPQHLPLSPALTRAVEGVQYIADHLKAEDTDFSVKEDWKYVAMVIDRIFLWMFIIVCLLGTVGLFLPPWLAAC
T3 sequence (P12390 25-500): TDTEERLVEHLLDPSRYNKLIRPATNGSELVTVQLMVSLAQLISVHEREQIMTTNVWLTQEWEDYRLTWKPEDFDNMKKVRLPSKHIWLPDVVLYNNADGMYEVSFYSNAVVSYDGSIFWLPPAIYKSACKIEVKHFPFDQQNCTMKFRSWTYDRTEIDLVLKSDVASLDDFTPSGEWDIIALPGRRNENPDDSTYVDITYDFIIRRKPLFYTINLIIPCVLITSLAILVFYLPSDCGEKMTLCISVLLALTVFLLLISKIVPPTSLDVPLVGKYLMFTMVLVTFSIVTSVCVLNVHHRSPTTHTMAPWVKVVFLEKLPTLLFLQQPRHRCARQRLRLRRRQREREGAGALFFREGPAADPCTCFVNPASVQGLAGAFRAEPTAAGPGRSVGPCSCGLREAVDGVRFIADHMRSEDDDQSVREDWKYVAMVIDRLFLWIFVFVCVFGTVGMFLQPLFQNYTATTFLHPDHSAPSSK
T1 sequence (P43681 29-627 limits assumed): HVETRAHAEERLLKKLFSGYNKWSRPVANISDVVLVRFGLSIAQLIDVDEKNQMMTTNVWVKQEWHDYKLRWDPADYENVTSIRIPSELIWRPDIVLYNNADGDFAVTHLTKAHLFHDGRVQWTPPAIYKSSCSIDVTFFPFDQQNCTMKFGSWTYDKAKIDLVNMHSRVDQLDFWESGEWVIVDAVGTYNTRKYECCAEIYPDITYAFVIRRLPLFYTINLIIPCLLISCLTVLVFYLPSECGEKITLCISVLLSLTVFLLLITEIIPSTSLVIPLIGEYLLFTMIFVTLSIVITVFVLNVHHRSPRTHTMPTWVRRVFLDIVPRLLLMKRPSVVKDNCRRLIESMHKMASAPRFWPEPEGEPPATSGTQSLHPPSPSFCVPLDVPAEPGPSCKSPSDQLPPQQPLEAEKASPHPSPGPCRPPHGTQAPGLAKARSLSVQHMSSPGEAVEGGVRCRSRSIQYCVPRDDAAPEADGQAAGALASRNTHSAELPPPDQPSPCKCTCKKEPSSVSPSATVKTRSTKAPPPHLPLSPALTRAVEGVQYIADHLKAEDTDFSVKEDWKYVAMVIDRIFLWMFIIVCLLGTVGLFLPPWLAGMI
T1 sequence (P17787 26-502): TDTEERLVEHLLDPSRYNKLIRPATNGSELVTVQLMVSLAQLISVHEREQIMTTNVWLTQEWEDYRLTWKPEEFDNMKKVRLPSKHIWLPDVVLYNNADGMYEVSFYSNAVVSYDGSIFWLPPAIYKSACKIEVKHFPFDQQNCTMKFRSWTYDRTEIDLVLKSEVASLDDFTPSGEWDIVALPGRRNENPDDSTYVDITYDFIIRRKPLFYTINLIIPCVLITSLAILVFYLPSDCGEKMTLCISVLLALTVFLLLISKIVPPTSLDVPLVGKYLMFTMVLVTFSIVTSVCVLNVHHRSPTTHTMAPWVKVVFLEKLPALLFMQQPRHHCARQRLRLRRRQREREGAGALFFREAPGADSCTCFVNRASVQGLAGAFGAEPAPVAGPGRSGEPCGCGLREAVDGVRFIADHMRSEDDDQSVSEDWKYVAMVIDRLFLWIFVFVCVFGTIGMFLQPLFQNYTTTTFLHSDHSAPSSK
T5 sequence (Q05941 23-502): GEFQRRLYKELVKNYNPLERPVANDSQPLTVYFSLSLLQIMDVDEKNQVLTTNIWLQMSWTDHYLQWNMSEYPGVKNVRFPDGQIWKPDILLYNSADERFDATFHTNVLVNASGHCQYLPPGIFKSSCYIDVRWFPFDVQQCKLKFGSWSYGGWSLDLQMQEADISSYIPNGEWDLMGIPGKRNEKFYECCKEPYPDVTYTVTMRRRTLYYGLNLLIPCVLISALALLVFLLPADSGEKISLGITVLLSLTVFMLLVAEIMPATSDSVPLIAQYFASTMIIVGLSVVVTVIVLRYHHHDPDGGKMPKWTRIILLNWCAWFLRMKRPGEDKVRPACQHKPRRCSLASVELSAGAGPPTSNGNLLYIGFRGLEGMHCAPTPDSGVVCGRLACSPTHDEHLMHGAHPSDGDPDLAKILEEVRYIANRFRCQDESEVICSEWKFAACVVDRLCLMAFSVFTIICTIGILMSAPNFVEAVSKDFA
Chain of α4β2 receptor sites (P09483 31-630): as the sequence (P09483 31-630) above
Chain of α4β2 receptor sites (P12390 25-500): as the sequence (P12390 25-500) above
T4 sequence (P09483 31-630): as the sequence (P09483 31-630) above
T4 sequence (P12390 25-500): as the sequence (P12390 25-500) above
Chain of α4β2 nAChRs (Homo sapiens, UniProt P17787+P43681) (P43681 29-627 limits assumed): as the sequence (P43681 29-627 limits assumed) above
Chain of α4β2 nAChRs (Homo sapiens, UniProt P17787+P43681) (P17787 26-502): as the sequence (P17787 26-502) above
T6 sequence (P04757 26-499): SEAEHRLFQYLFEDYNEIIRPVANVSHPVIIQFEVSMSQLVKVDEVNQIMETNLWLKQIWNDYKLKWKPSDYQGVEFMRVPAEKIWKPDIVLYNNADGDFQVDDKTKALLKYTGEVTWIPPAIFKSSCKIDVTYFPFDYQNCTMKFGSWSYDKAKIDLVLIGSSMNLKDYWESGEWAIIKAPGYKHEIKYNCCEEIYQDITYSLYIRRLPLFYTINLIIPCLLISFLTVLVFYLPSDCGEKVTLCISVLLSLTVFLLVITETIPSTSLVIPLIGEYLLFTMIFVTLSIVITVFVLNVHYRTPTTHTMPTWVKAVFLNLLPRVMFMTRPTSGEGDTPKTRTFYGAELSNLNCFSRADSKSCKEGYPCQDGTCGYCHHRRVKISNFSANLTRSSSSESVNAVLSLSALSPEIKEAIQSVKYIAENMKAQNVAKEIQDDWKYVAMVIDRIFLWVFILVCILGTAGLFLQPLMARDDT
T6 sequence (P12392 21-495): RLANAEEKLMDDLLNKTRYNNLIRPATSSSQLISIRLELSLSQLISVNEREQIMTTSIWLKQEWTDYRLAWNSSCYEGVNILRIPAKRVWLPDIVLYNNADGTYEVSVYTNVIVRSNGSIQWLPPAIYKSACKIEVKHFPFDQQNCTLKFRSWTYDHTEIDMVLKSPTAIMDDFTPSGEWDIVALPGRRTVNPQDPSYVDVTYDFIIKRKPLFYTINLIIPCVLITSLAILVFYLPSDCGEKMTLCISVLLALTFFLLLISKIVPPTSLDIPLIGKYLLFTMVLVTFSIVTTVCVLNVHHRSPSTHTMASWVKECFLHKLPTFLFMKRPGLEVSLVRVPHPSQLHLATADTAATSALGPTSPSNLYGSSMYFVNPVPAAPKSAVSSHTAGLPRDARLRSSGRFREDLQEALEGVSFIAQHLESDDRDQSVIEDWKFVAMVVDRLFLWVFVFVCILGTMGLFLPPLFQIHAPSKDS
T7 sequence (P04757 26-499): as the sequence (P04757 26-499) above
T7 sequence (P12390 25-500): as the sequence (P12390 25-500) above
Chain of alpha4-beta2 receptors (P09483 31-630): as the sequence (P09483 31-630) above
Chain of alpha4-beta2 receptors (P12390 25-500): as the sequence (P12390 25-500) above
T2 sequence (P09483 31-630): as the sequence (P09483 31-630) above
T2 sequence (P12390 25-500): as the sequence (P12390 25-500) above

## Ic1cncc(OC[C@@H]2CCN2)c1 [5-IA85380]
α4β2 receptors [1]
  scanning time required: over 6 hrs

## Ic1cncc(OC[C@@H]2C=CCN2)c1 [Niodene, 3-iodo-5-[2-(S)-3-pyrrolinylmethoxy]pyridine]
Rat brain α4β2 receptors
  Ki: 0.27 nM
α4β2 receptor [2]
  displacement of 18F-nifene bound to α4β2 receptors: > 95%

## [123I]c1cncc(OCC2C=CCN2)c1 (centres unmarked) [^123I-niodene]
α4β2 receptor [3]
  cortex to cerebellum binding ratio: 1.6
  thalamus to cerebellum binding ratio: 4

## Fc1ncc(I)cc1OC[C@@H]1C=CCN1 [Niofene, 2-Fluoro-5-iodo-3-[2-(S)-3,4-dehydropyrrolinylmethoxy]pyridine]
α4β2 receptors [4]
  affinity: subnanomolar

## [18F]c1ncccc1OC[C@@H]1CCN1 [2-FA85380, 2-18F-fluoro-3-(2(S)-azetidinylmethoxy)pyridine]
α4β2 nAChRs [5]
  time to reach pseudoequilibrium: 4 to 6 h

## [18F]c1ncc(I)cc1OC[C@@H]1C=CCN1 [18F-Niofene, 2-^18F-5-iodo-3-[2-(S)-3,4-dehydropyrrolinylmethoxy]pyridine]
α4β2 nAChRs [6]
  TH/CB at pseudoequilibrium: > 2

## [18F]CCCc1cncc(OC[C@@H]2CCCN2)c1 [18F-nifrolidine, 5-(3-18F-fluoropropyl)-3-(2-(S)-pyrrolidinylmethoxy)pyridine]
α4β2 receptor [7]; anesthetized rhesus monkey, 155 MBq
  vital signs: did not exhibit any unusual deviations from the baseline values
α4β2 receptor [7]; rhesus monkey PET
  time of maximal binding in the thalamus following injection: > 70 min
  time to approach transient equilibrium: about 2.5 hrs
  time to plateauing of the thalamus-to-Cb ratio: 150 min
α4β2 receptor [7]; [10]
  selective maximal uptake in AVT and AMT: 0.011 % ID/mL
  uptake in VLT: 0.10 % ID/mL
α4β2 receptor [7]; rhesus monkey PET, about 140 min after injection
  ratio between the thalamus and the Cb: approximately 1.7
α4β2 receptor [7]; rhesus monkey PET, in 120 min
  cortical regions to Cb ratio: 1.3
  thalamus-to-Cb ratio (plateau): 1.7
α4β2 receptor sites; horizontal rat brain slices
  binding in cerebellum as % of that found in the AV: approximately 8%
α4β2 receptor sites; horizontal slices
  order of binding in brain regions: thalamus>Ctx>striata>cerebellum
α4β2 receptor [8]; rat, 2 min
  Thalamus-to-cerebellum ratio, Control: 1.30
  % ID/g Blood: 0.25 % ID/g
  % ID/g Cerebellum: 0.24 ± 0.03 % ID/g
  % ID/g Cortex: 0.21 ± 0.04 % ID/g
  % ID/g Thalamus: 0.26 ± 0.05 % ID/g
α4β2 receptor [8]; rat, 60 min
  Thalamus-to-cerebellum ratio, Control: 3.08
  % ID/g Blood: 0.14 ± 0.03 % ID/g
  % ID/g Cerebellum: 0.12 ± 0.02 % ID/g
  % ID/g Cortex: 0.25 ± 0.03 % ID/g
  % ID/g Thalamus: > 0.3 % ID/g
α4β2 receptor [8]; rat, 60 min, nicotine ditartarate 10 mg/kg s.c. 5 min before 18F-nifrolidine
  Thalamus-to-cerebellum ratio, Before nicotine: 1.8
α4β2 receptor [8]; rat, 120 min
  Thalamus-to-cerebellum ratio, Control: 1.40
  % ID/g Blood: < 0.03 % ID/g
  % ID/g Cerebellum: 0.10 ± 0.02 % ID/g
  % ID/g Cortex: 0.13 ± 0.04 % ID/g
  % ID/g Thalamus: 0.14 ± 0.03 % ID/g
α4β2 receptor [8]; rat, 2 min, listed as 18F-NIFROLIDINE
  % ID/g Blood: 0.25 ± 0.09 % ID/g
α4β2 receptor [8]; rat, 60 min, listed as 18F-NIFROLIDINE
  % ID/g Thalamus: 0.37 ± 0.07 % ID/g
α4β2 receptor [8]; rat, 120 min, listed as 18F-NIFROLIDINE
  % ID/g Blood: 0.04 ± 0.01 % ID/g
α4β2 receptor [8]; rodents, in vivo
  blood-brain barrier penetration: able to cross the blood-brain barrier

## FCCCc1cncc(OC[C@@H]2CCCN2)c1 [nifrolidine, 5-(3′-fluoropropyl)-3-(2-(S)-pyrrolidinylmethoxy)-pyridine]
α7 nAChRs
  affinity for α7 sites (displacement of 125I-α-bungaratoxin): no measureable displacement and weak
α4β2 nAChRs [9]
  Ki: 2.89 nM
α3β4 sites
  Ki: > 30 nM
α3β2 sites
  Ki: > 30 nM

## [18F]c1ncccc1OC[C@@H]1C=CCN1 [^18F-Nifene, 2-[^18F]fluoro-3-[2-(S)-pyrrolinyl-3,4-dehydromethoxy]pyridine]
alpha4-beta2 receptors
  reversal of binding by nicotine: rapidly reverse
